Data: the NIST ThermoML archive (doi:10.1016/j.jct.2016.03.021)

Experiment: wn = mass fraction of the nth substance listed
Details: Liquid; for mass density: Vibrating tube method

CN(CCO)CCO [N-methyldiethanolamine] + O
mass density [kg/m3]
Details	w1 = 0.1	w1 = 0.2002	w1 = 0.3	w1 = 0.4
333.15 K, 60000 kPa	–	–	–	1035
333.15 K, 70000 kPa	1017.9	1024.4	1031.5	1038.4
333.15 K, 80000 kPa	1021.6	1027.9	1034.9	1041.6
333.15 K, 90000 kPa	1025.1	1031.3	1038.1	1044.9
333.15 K, 100000 kPa	1028.5	1034.7	1041.6	1048.2
333.15 K, 110000 kPa	1031.9	1038	1044.6	1051.3
333.15 K, 120000 kPa	1035.4	1041.4	1047.9	1054.5
333.15 K, 130000 kPa	1038.7	1044.5	1051	1057.5
333.15 K, 140000 kPa	1042	1047.7	1054.2	1060.6
353.15 K, 100 kPa	978.6	985.3	992	998.1
353.15 K, 500 kPa	978.7	985.3	992	998.2
353.15 K, 1000 kPa	978.9	985.5	992.2	998.4
353.15 K, 2000 kPa	979.3	985.9	992.7	998.8
353.15 K, 5000 kPa	980.6	987.2	993.9	1000.1
353.15 K, 10000 kPa	982.8	989.4	996.1	1002.3
353.15 K, 15000 kPa	984.9	991.5	998.2	1004.4
353.15 K, 20000 kPa	987	993.5	1000.3	1006.5
353.15 K, 30000 kPa	991.2	997.6	1004.3	1010.5
353.15 K, 40000 kPa	995.2	1001.6	1008.1	1014.4
353.15 K, 50000 kPa	999.1	1005.5	1012	1018.2
353.15 K, 60000 kPa	1003.1	1009.3	1015.9	1022
353.15 K, 70000 kPa	1006.9	1012.9	1019.5	1025.6
353.15 K, 80000 kPa	1010.5	1016.6	1023	1029.1
353.15 K, 90000 kPa	1014	1020	1026.4	1032.6
353.15 K, 100000 kPa	1017.7	1023.6	1029.9	1036
353.15 K, 110000 kPa	1021.2	1027	1033.3	1039.3
353.15 K, 120000 kPa	1024.6	1030.4	1036.6	1042.5
353.15 K, 130000 kPa	1028	1033.6	1039.8	1045.8
353.15 K, 140000 kPa	1031.2	1036.8	1042.9	1048.9
373.15 K, 100 kPa	964.4	970.5	976.5	981.9
373.15 K, 500 kPa	964.6	970.7	976.6	982.1
373.15 K, 1000 kPa	964.9	970.9	976.9	982.4
373.15 K, 2000 kPa	965.3	971.4	977.4	982.8
373.15 K, 5000 kPa	966.7	972.8	978.7	984.2
373.15 K, 10000 kPa	969	975	981.1	986.5
373.15 K, 15000 kPa	971.2	977.2	983.4	988.8
373.15 K, 20000 kPa	973.5	979.5	985.6	991.1
373.15 K, 30000 kPa	977.9	983.9	989.8	995.5
373.15 K, 40000 kPa	982.1	988.2	994.1	999.8
373.15 K, 50000 kPa	986.2	992.1	998.1	1003.7
373.15 K, 60000 kPa	990.1	996.1	1002.1	1007.7
373.15 K, 70000 kPa	994.2	1000	1005.9	1011.6
373.15 K, 80000 kPa	998.1	1003.8	1009.8	1015.4
373.15 K, 90000 kPa	1001.8	1007.4	1013.3	1019
373.15 K, 100000 kPa	1005.3	1011.1	1017	1022.6
373.15 K, 110000 kPa	1009	1014.7	1020.5	1026.2
373.15 K, 120000 kPa	1012.6	1018.3	1024	1029.7
373.15 K, 130000 kPa	1016	1021.5	1027.4	1033
373.15 K, 140000 kPa	1019.4	1025	1030.7	1036.3
393.15 K, 100 kPa	948.6	954	959.6	964.2
393.15 K, 500 kPa	949	954.4	959.9	964.7
393.15 K, 1000 kPa	949.2	954.6	960.1	964.8
393.15 K, 2000 kPa	949.6	955.2	960.6	965.4
393.15 K, 5000 kPa	951.1	956.7	962.1	966.9
393.15 K, 10000 kPa	953.6	959.2	964.7	969.5
393.15 K, 15000 kPa	956	961.6	967.1	972
393.15 K, 20000 kPa	958.5	964	969.6	974.5
393.15 K, 30000 kPa	963	968.5	974.2	979.2
393.15 K, 40000 kPa	967.6	973.1	978.7	983.9
393.15 K, 50000 kPa	971.8	977.3	983	988.1
393.15 K, 60000 kPa	976.2	981.7	987.4	992.5
393.15 K, 70000 kPa	980.4	985.9	991.6	996.8
393.15 K, 80000 kPa	984.3	989.8	995.4	1000.8
393.15 K, 90000 kPa	988.3	993.7	999.4	1004.6
393.15 K, 100000 kPa	992.1	997.5	1003.1	1008.5
393.15 K, 110000 kPa	995.9	1001.4	1006.9	1012.3
393.15 K, 120000 kPa	999.6	1005	1010.6	1015.9
393.15 K, 130000 kPa	1003.1	1008.5	1014.1	1019.4
393.15 K, 140000 kPa	1006.7	1012	1017.6	1023

viscosity [mPa·s]
Details	w1 = 0.1	w1 = 0.2	w1 = 0.2002	w1 = 0.3	w1 = 0.4
333.15 K, 80000 kPa, Falling or rolling sphere viscometry	0.661	–	0.942	1.4	2.134
333.15 K, 100000 kPa, Falling or rolling sphere viscometry	0.672	–	0.967	1.435	2.206
333.15 K, 120000 kPa, Falling or rolling sphere viscometry	0.68	–	0.982	1.468	2.28
353.15 K, 93 kPa, Concentric cylinders viscometry	–	0.6205	–	0.8505	1.186
353.15 K, 100 kPa, Falling or rolling sphere viscometry	–	0.617	0.617	0.854	1.181
353.15 K, 5000 kPa, Falling or rolling sphere viscometry	–	–	0.62	0.862	1.193
353.15 K, 10000 kPa, Falling or rolling sphere viscometry	–	–	0.625	0.869	1.204
353.15 K, 20000 kPa, Falling or rolling sphere viscometry	–	–	0.633	0.881	1.229
353.15 K, 30000 kPa, Falling or rolling sphere viscometry	–	–	0.64	0.894	1.253
353.15 K, 40000 kPa, Falling or rolling sphere viscometry	–	–	0.647	0.907	1.276
353.15 K, 60000 kPa, Falling or rolling sphere viscometry	–	–	0.661	0.932	1.322
353.15 K, 80000 kPa, Falling or rolling sphere viscometry	–	–	0.675	0.959	1.368
353.15 K, 100000 kPa, Falling or rolling sphere viscometry	–	–	0.691	0.997	1.419
353.15 K, 120000 kPa, Falling or rolling sphere viscometry	–	–	0.705	1.018	1.467
